Measurements: article PMC7562955 (Nature Communications, 2020)
“And” between values parts separate entries of the source, which are not always exact repeats. Equal entries are not always repeated.

Columns and labels:
TLR1/2 = target: T1, TLR1/2 (Homo sapiens, UniProt O60603+Q15399); test: TNF-α production by human PBMC stimulated by TLR1/2 ligand Pam3CSK4 (ELISA); format: cell-based; settings: for TLR2-dependent TNF-α production: 2.5 μM; for Mean TNF-α / TNF-α: activator PAM3CSK4, antagonist 2.5 μM; for Mean TNF-α: n = 3; for TNF-α: single replicate
T1 construct: Human Peripheral Blood Mononuclear cells (hPBMCs) were collected from healthy adult donors; endogenous in cells; host or cells: primary human PBMCs
T1 sequence (Q15399 25-786): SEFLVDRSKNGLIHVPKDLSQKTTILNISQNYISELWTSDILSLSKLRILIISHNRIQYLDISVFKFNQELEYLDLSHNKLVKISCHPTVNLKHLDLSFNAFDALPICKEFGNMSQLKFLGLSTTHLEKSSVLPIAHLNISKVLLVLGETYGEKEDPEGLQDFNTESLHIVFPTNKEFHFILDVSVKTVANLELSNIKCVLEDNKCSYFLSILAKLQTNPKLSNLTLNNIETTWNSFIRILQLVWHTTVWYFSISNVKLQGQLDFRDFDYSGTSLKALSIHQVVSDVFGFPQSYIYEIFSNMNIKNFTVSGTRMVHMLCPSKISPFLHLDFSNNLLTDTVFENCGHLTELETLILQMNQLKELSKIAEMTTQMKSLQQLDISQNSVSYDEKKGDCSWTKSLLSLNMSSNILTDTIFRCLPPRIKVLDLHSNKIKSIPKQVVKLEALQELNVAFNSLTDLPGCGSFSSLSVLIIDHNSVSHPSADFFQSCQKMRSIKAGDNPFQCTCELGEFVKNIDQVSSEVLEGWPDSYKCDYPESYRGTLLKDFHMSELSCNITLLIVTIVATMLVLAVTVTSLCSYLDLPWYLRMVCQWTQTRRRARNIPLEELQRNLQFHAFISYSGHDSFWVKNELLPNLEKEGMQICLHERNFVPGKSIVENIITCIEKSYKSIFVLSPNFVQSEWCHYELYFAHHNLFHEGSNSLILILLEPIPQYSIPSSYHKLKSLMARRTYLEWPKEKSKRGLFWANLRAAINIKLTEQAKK
T1 sequence (O60603 19-784 limits assumed): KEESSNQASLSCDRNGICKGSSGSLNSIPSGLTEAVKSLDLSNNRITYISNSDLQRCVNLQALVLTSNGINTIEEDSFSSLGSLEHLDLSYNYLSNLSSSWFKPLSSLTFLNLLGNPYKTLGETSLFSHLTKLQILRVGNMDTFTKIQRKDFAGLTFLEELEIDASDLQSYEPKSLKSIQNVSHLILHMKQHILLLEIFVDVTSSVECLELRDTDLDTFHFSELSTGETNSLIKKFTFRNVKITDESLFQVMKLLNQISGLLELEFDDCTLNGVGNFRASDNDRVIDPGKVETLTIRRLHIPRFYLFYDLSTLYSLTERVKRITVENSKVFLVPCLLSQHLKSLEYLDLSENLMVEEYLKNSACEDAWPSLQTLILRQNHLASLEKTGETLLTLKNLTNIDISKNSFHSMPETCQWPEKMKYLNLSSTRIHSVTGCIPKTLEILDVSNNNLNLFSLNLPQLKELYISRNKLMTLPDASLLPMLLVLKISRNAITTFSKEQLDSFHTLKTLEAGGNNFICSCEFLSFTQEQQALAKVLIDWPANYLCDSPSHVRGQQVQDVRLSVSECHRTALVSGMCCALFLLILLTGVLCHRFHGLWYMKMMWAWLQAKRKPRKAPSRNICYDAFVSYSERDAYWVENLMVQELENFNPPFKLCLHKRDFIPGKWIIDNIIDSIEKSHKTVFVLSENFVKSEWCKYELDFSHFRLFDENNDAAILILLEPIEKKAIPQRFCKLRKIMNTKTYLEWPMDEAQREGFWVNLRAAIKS
Experimental: Human Peripheral Blood Mononuclear cells (hPBMCs) were collected from healthy adult donors. hPBMCs were cultured in round-bottom 96-well plates (BD Falcon, Durham, NC, USA) with a density of 5 × 10^5 cells/well. Plated cells were pretreated with DMSO or 2.5 μM inhibitors for 3 h and then stimulated by indicated ligands, such as R848 or TLR1/2 specific ligand Pam3CSK4 (Invivogen, HongKong, China), for 20 h in […] of RPMI 1640 medium (Gibco, Paisley, UK) supplemented with 10% FBS, Penicillin-Streptomycin-Glutamine (Gibco, Paisley, UK), 50 μM 2-ME medium at 37 °C in the presence of 5% CO2. Supernatants were collected to measure secreted cytokines by ELISA. Concentration of human IFN-α and TNF-α in the supernatants was measured with Verikine Human IFN-α Multi-Subtype Serum ELISA Kit (PBL Assay Science, Piscataway, NJ, USA) and Human TNF-α Uncoated ELISA (ThermoFisher Scientific, Carlsbad, CA, USA), respectively. This study was approved by the Research Ethics Committee of IMSUT (accession number: 30-100-B20190419).

mouse TLR9 = target: T2, mouse TLR9 (Mus musculus, UniProt Q9EQU3); test: Mouse TLR9 reporter gene assay (NF-kB luciferase, HEK293); format: cell-based; settings: CpG1826 100 nM
T2 construct: host or cells: HEK293 (293-mTLR9)
T2 sequence (Q9EQU3 26-1032): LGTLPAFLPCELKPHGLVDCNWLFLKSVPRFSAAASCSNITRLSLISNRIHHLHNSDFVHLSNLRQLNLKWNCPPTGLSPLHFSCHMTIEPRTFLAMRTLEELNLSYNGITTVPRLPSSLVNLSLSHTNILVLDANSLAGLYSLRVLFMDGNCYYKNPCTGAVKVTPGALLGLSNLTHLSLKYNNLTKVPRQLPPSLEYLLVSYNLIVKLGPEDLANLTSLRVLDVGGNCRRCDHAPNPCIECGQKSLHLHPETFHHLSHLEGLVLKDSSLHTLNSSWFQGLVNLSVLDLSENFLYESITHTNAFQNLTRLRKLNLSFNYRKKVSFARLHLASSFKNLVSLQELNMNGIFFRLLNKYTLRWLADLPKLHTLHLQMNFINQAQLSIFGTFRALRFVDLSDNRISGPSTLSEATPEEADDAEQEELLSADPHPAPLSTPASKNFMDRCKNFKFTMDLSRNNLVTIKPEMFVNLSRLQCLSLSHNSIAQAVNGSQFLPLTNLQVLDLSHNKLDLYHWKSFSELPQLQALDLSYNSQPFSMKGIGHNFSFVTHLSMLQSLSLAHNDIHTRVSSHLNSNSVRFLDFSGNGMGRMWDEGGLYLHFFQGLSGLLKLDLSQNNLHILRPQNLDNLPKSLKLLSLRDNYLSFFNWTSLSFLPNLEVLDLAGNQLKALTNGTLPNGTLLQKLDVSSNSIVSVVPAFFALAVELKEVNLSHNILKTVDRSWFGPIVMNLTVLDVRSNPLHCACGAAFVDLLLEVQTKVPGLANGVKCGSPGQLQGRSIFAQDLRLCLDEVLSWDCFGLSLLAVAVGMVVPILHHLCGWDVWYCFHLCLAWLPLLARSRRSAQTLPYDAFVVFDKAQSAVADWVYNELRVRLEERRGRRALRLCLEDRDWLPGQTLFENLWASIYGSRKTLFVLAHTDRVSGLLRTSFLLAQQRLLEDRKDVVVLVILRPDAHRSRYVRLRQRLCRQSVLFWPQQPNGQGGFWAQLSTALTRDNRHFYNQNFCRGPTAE
Experimental: Compounds were dissolved in dimethyl sulfoxide. The day before transfection, mouse TLR7 genestably-expressing HE293 cell line (293XL-mTLR7 cell, InvivoGen, USA) and mouse TLR9 genestably-expressing HEK293 cell line (293-mTLR9 cell, InvivoGen) were seeded in collagen-coated 6-well plate (AGC techno glass) at 3 × 10^5 cells/well in DMEM (GIBCO) with 10% fetal bovine serum (GIBCO), and 10 μg ml^−1 Blastcidin S HCl (GIBCO) and incubated at 37 °C in 5% CO2. The plates were incubated over-night and then cotransfected with 1 μg (mouse TLR7) or 0.3 μg (mouse TLR9) of pNF-kB-Luciferase reporter in a 10:1 ratio with 4 μl of FuGene6 transfection reagent (Promega corporation, USA) following the manufacturer’s instructions. The plates were incubated 24 h. The cells re-seeded into 96-well plate (AGC techno glass) at 2 × 10^4 cells/well in DMEM (GIBCO) with 10% fetal bovine serum (GIBCO), and 10 μg ml^−1 Blastcidin S HCl (GIBCO) and then inhibition with various concentrations of compound. HCQ (mouse TLR7/9, Acros Organics, United Kingdom) was used as positive control. After 30 min, R848 (mouse TLR7/8 ligand) or CpG1826 (mouse TLR9 ligand, Hokkaido System Science Co., Ltd.) added to each well, wherein each final concentration were adjusted to 200 nM R848 (mouse TLR7) or 100 nM CpG1826 (mouse TLR9). The plates were then incubated an additional 6 h at 37 °C in 5% CO2, and then the luciferase activity was measured as activation of mouse TLR7 and 9. The luciferase activity was evaluated as follows: Bright-GloTM Luciferase Assay System (Promega) was added to the incubated sample (100 μl/well); after 2 min, the luminescence intensity of each sample was measured with a luminometer (Envision).

Row | Structure (SMILES) | TLR2-dependent TNF-α production (TLR1/2) | Mean TNF-α (TLR1/2) [pg/mL] | TNF-α (TLR1/2) | mouse TLR9 activity, reporter signal (mouse TLR9; compound 0.0001 nM (as headed)) | mouse TLR9 activity, reporter signal (mouse TLR9; compound 0.001 nM (as headed)) | mouse TLR9 activity, reporter signal (mouse TLR9; compound 0.003 nM (as headed)) | mouse TLR9 activity, reporter signal (mouse TLR9; compound 0.01 nM (as headed)) | mouse TLR9 activity, reporter signal (mouse TLR9; compound 0.03 nM (as headed)) | mouse TLR9 activity, reporter signal (mouse TLR9; compound 0.1 nM (as headed)) | mouse TLR9 activity, reporter signal (mouse TLR9; compound 0.3 nM (as headed)) | mouse TLR9 activity, reporter signal (mouse TLR9; compound 1 nM (as headed)) | mouse TLR9 activity, reporter signal (mouse TLR9; compound 3 nM (as headed)) | mouse TLR9 activity, reporter signal (mouse TLR9; compound 10 nM (as headed)) | mouse TLR9 activity, reporter signal (mouse TLR9; compound 30 nM (as headed)) | mouse TLR9 activity, reporter signal (mouse TLR9; compound 100 nM (as headed))
1 | CCOc1nc(N)c2nc(-c3cncc(F)c3)n(Cc3ccc(CN4C[C@@H]5C[C@H]4CN5C)cc3)c2n1 [Cpd-6] | neither Cpd-6 nor Cpd-7 blocked | 2207.35 | 2553.64 pg/mL and 2237.72 pg/mL and 1830.68 pg/mL |  |  |  |  |  |  |  |  |  |  |  | 
2 | CCOc1nc(C)c2nc(-c3cncc(F)c3)n(Cc3ccc(CN4C[C@@H]5C[C@H]4CN5C)cc3)c2n1 [Cpd-7] | neither Cpd-6 nor Cpd-7 blocked | 2407.5 | 2596.39 pg/mL and 2051.11 pg/mL and 2574.99 pg/mL | 670258 | 769686 | 682550 | 681778 | 778720 | 762582 | 758536 | 750674 | 718794 | 519616 | 67454 | 0
3 | CCN(CCO)CCCC(C)Nc1ccnc2cc(Cl)ccc12 (stereo not drawn) [HCQ, hydroxychloroquine, reference compound] |  |  |  | 670258 | 691508 | 691964 | 727784 | 642512 | 455236 | 212962 | 48988 | 7184 | 3474 | 3862 | 0
